Measured values taken from PMC7464552, “Structural Basis of Beneficial Design for Effective Nicotinamide Phosphoribosyltransferase Inhibitors” (Molecules, 2020).

Columns and labels:
[1] = tested on: NAD+ levels in the cancer cells; assay: Reduction of NAD+ levels in the cancer cells after 24 h-treatment; format: cell-based, human
Procedure: (§1) To confirm the marked differences of anti-NAMPT activities between 3a and 3b, the anti-proliferation effects of these inhibitors on the human colon cancer cell line HCT116 were examined after continuous exposure for 72 h. […] In addition, there was little cytotoxicity on non-cancer cell lines, such as TIG-120, WI38 and MRC-5 cells. Both 3a and 3b caused more than 90% reduction of NAD^+ levels in the cancer cells after 24 h-treatment and thereby induced cell death.

[2] = tested on: HCT116 cells; assay: Cell activity (anti-proliferation) assay, WST-8, 72 h; format: cell-based, human; settings: for rescue of HCT116 cells from cell death by supplementation of NMN: 100 μM NMN in the cell culture medium, 72 h; for EC50: Homo sapiens, HCT-116, read-out: 50% effective concentration (EC50), anti-proliferation, HCT116, continuous exposure for 72 h, WST-8
Procedure: as §1
HCT116 cell was obtained from American Type Culture Collection (ATCC) (Manassas, US) and cultured in Dulbecco’s modified Eagle medium (DMEM) (FUJIFILM Wako Pure Chemical Corporation) supplemented with 10% of fetal bovine serum (Biosera Europe; Nuaillé, France), 100 Units/mL of penicillin G and 100 μg/mL of Streptomycin (FUJIFILM Wako Pure Chemical Corporation).
One thousand HCT116 cells were inoculated into the 96-well transparent cell culture plate and cultured for 24 h. The medium was changed to new medium that contained the tested compounds and was further cultivated for 72 h. Following the culture, 1/10 volume of the WST-8 reagent (FUJIFILM Wako Pure Chemical Corporation) was added and incubated for 1 h. After the incubation, the absorbance of the samples was detected at 450 nm using a SYNERGY HTX (BioTek Instruments, Inc.). Cell activity was expressed as percentage of control cells treated with vehicle alone.
(§2) Figure 3 Biochemical properties of 3a and 3b. (a) The inhibitory activities of 3a (open circle), 3b (open triangle) and 1 (open square) against NAMPT enzyme were examined, as described previously. NAMPT activity was measured using a coupled-enzyme reaction system (CycLex NAMPT colorimetric assay kit) in 96-well plate format using the one-step method. Data are the averages of three independent experiments, and the bars indicate the standard error (SE) values. (b) The anti-proliferative effects of 3a (circle) and 3b (triangle) on HCT116 cells were investigated as described previously. HCT116 cells were treated with the indicated concentrations of each inhibitor with (closed symbol) or without (open symbol) 100 μM NMN for 72 h. The cell activity (% of control) was measured by use of the WST-8 assay. Data are presented as the means of three independent experiments ± SE, and the bars indicate the SE values.

[3] = biological target: T1, recombinant NAMPT (Homo sapiens, UniProt P43490); assay: Enzymatic NAMPT assay (CycLex NAMPT colorimetric coupled-enzyme reaction system); format: biochemical; settings: for IC50: titration curves of Figure 3a, coupled-enzyme colorimetric assay, read-out: IC50 (NAMPT inhibitory activity)
T1 construct: purchased MEDICAL & BIOLOGICAL LABORATORIES CO., LTD; (CycLex NAMPT Colorimetric Assay Kit)
Procedure: For the inhibitory effects of 3a and 3b on NAMPT activity, recombinant NAMPT activity was measured using a coupled-enzyme reaction system (CycLex NAMPT Colorimetric Assay Kit: MEDICAL & BIOLOGICAL LABORATORIES CO., LTD., Nagoya, Japan) according to the manufacturer’s instructions, as described previously. Briefly, NAMPT enzyme and tested compounds were put on the 96-well transparent plate. […] After a brief incubation, the absorbance of the samples was detected at 450 nm on every 10 min until 60 min using a SYNERGY HTX (BioTek Instruments, Inc.; Winooski, VT, USA). The inhibition rates were calculated by the initial slope of the absorbance of the tested samples divided by that of the control wells. The IC50 values for the samples were calculated by 4-parameter logistic regression using Image J 1.48v (https://imagej.nih.gov/ij/).
as §2, with “(a) The inhibitory activities of 3a (open circle), 3b (open triangle) and 1 (open square) against NAMPT enzyme were examined, as described previously.” left out

T1 sequence (P43490 whole entry): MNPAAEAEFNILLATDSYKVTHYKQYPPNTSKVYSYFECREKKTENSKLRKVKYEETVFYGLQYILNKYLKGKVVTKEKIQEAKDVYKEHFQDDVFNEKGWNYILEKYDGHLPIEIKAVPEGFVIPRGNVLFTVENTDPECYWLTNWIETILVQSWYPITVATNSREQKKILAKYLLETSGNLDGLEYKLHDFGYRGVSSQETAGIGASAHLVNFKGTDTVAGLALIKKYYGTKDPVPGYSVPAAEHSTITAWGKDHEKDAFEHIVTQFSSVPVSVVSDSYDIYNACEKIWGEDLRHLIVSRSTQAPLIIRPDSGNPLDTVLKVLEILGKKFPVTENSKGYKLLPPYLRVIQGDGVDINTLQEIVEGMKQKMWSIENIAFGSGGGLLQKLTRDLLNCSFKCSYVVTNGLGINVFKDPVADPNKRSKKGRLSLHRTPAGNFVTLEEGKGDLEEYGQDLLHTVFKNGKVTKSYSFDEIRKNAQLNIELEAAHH

Row | Compound | reduction of NAD+ levels [1] | rescue of HCT116 cells from cell death by supplementation of NMN [2] | EC50 [2] [nM] | fold stronger NAMPT inhibitory activity than 1 ([3]; ratio of IC50 values, versus 1) | IC50 [3] [nM] | fold higher EC50 than 3a ([2]; HCT116, 72 h, ratio of EC50 values, versus 3a) | fold weaker NAMPT inhibitory activity than 3a ([3]; ratio of IC50 values, versus 3a)
1 | O=C(NCCCCC1CCN(C(=O)c2ccccc2)CC1)c1cc2cnccc2[nH]1 [Compound 3a, N-(4-(1-benzoylpiperidin-4-yl)butyl)-1H-pyrrolo[3,2-c]pyridine-2-carboxamide] | more than 90% | significantly rescue | 0.48 | approximately 5 fold | 110 | – | –
2 | O=C(NCCCCN1CCN(C(=O)c2ccccc2)CC1)c1cc2cnccc2[nH]1 [Compound 3b, N-(4-(4-Benzoylpiperazin-1-yl)butyl)-1H-pyroro[3,2-c]pyridine-2-carboxamide] | more than 90% | significantly rescue | 87.5 | – | 5060 | approximately 200 fold | about 50 fold
